Key:
Type in all cases: cell-based
cultured cells = experiment: Optimal concentration of PARP inhibitor in the culture medium; conditions: i.e. about 2 mM; incubation not longer than 14 days
Experimental: The concentration of the PARP inhibitor in the medium is also believed to have an effect on the inhibition of PARP, which varies depending on the nature of the cells (species, tissue explant, general culture conditions, etc.) However, within certain concentration ranges, the effect is minimal, especially when the cultured cells are not incubated for longer than 14 days. The optimal concentration range of PARP inhibitor in the medium may vary depending on the species from which the tissue, cell or cell culture is derived, but 250 mg/l (about 2 mM) is believed to be a suitable concentration for many purposes (e.g. for use with material derived from wheat). However, when nicotinamide is used in combination with plant material derived from rice, the concentration of nicotinamide should preferably be between 500 mg/l (about 4 mM) and 1000 mg/l (approx. 8 mM). On the other hand, when nicotinamide is used in combination with plant material derived from corn, the concentration of nicotinamide should preferably be 100 mg/l. […] The optimal concentration will depend on the nature of the specific PARP inhibitor used, particularly on its strength of inhibition (as measured by its Ki and/or by its percentage inhibition of PARP under standard conditions—Sims et al, supra). […]

[1] = test system: Hypocotyl explants of Brassica napus; experiment: Agrobacterium mediated transformation of oilseed rape hypocotyl explants with pTHW107, niacinamide for 4 days prior to infection
Experimental: Hypocotyl explants of Brassica napus were obtained, cultured and transformed essentially as described by De Block et al, 1989, Plant Physiol. 914:694-701 except for the following modifications: • hypocotyl explants were precultured for 3 days on A2 medium (MS, 0.5 g/l Mes (pH 5.7), 1.2% glucose, 0.5% agarose, 1 mg/l 2,4-D, 0.25 mg/l naphthalene acetic acid (NAA), 1 mg/l 6-benzylaminopurine (BAP)), and then transferred to the A2 medium with or without niacinamide for another 4 days. • infection medium A3 was MS, 0.5 g/l Mes (pH 5.7), 1.2% glucose, 0.1 mg/l NAA, 0.75 mg/l BAP, 0.01 mg/l giberellinic acid (GA3) • selection medium A5 was 0.5 g/l Mes (pH 5.7), 1.2% glucose, 40 mg/l adenine.SO4, 0.5 g/l polyvinyl-polypyrrolidone (PVP), 0.5% agarose, 0.1 mg/l NAA, 0.75 mg/l BAP, 0.01 mg/l GA3, 250 mg/l carbenicillin, 250 mg/l triacillin, 5 mg/l AgNO3. • regeneration medium A6 was MS, 0.5 g/l Mes (pH 5.7), 2% sucrose, 40 mg/l adenine.SO4, 0.5 g/l PVP, 0.5% agarose, 0.0025 mg/l BAP, 250 mg/l triacillin. • healthy shoots were transferred to 1 liter vessels containing rooting medium which was either A8 or A9; A8 consists of 100-130 ml half concentrated MS, 1% sucrose (pH 5.0), 1 mg/l isobutyric acid (IBA), 100 mg/l triacillin added to 300 ml perlite (final pH 6.2); A9 consists of half concentrated MS, 1.5% sucrose (pH 5.8) solidified with agar (0.6%)
Hypocotyl explants (with or without niacinamide treatment) were infected with Agrobacterium tumefaciens strain C58C1Rif carrying T-DNA vector pTHW107 and a helper Ti-plasmid pMP90 (Koncz and Schell, 1986, Mol.Gen.Genet. 204:383-396)(or a derivative thereof).
Plasmid pTHW107 is a vector carrying a T-DNA comprising the following chimeric genes: • PTA29-barnase-3′g7 • PSSU-bar-3′nos • in which PTA29 is the promoter of the TA29 gene of tobacco (EP 344029) and PSSU is the promoter of the gene of Arabidopsis thaliana encoding the small subunit of Rubisco. The complete sequence of the T-DNA of pTHW107 is presented in SEQ ID No 1.
Where required niacinamide (250 mg/l) was added to the media for the last 4 days prior to infection with Agrobacterium. […] Five plants regenerated from the calli obtained by transformation including niacinamide and five plants regenerated from the calli obtained by conventional transformation without niacinamide inclusion, were analyzed by Southern hybridization to determine the copy number of the transgenes, and were further analyzed for reproductive phenotype.

Wheat embryogenic callus = experiment: Tissue culture of wheat embryogenic callus on W2 medium containing niacinamide
Experimental: After the one day incubation the capacity of the transformed and control tissues to reduce 2,3,5-triphenyltetrazolium chloride (TTC) is measured e.g. by the following procedure which is modified from Towill and Mazur (supra): • incubate the tissues for 1 to 4 hours in K-phosphate buffer (pH 7.4) containing 10 mM TTC and 0.1% Tween20. […] The O.D. of the control extract is subtracted from the OD of the TTC-reacted extracts. In the above conditions 0.1 mM reduced TTC corresponds to an OD485 of 0.214 or OD545 of 1.025 (light path 1 cm). • the reducing capacity of the transformed plant line is compared to that of the control line. Wheat embryogenic callus was cultured on W2 medium (see Example 2).

[2] = 250 mg/l niacinamide for the last 4 days prior to infection
[3] = Before 250, regenerated plants Id. No. 1-5

With `NC(=O)c1cccnc1` [niacinamide] the “optimal concentration in the culture medium” value (cultured cells) was “approximately 250 mg/l”, the “copy number in plants regenerated from transformed calli” value [1, 2] was “low copy number” and the “variation in the expression profile of the transgenes” value [1, 2] was “less variation”. The “Phenotype of the F1-progeny (vegetative/reproductive)” value ([1]; Before 250, pollinated with untransformed N90-740, phosphinotricin resistant F1-progeny) was “normal/sterile”, the “Reproductive phenotype (male sterility)” value [1, 3] was “sterile” and the Vegetative phenotype [1, 3] was “normal”. The “growth of the tissue (rate relative to the normal rate)” value (Wheat embryogenic callus; 250 mg/l (approx. 2 mM) niacinamide in W2 medium, growth slowed after 4 days, rate after 4 weeks) was “approximately 30%”, the “viability of the tissue” value (Wheat embryogenic callus; 250 mg/l niacinamide in W2 medium, at least one month) was “remained viable for extended periods of time” and the “TTC-reducing capacity of the tissue” value (Wheat embryogenic callus; after 4-5 days of incubation with niacinamide) was “substantially decreased”. The “growth after removal of niacinamide from the medium” value (Wheat embryogenic callus; niacinamide subsequently removed from the medium) was “started to grow normally again”.

Source: patent US20050014268A1, “Genetic transformation using a PARP inhibitor” (Bayer BioScience NV, priority 1995, published 2005)
